Assay results reported in the kinase profiling compilation of Christmann-Franck et al. (2016).

How the values were obtained:
PIM1 (human) [1] = target: PIM1 (human) (UniProt P11309); assay: SelectScreen, TR FRET
PIM2 (human) [2] = target: PIM2 (human) (UniProt Q9P1W9); assay: SelectScreen, TR FRET
HIPK1 (human) = HIPK1 (human) (UniProt Q86Z02); assay: KINOMEscan competition binding; conditions: compound 10.0 µM
RIOK1 (human) = RIOK1 (human) (UniProt Q9BRS2); assay: KINOMEscan competition binding; conditions: compound 10.0 µM
Chain of RIOK1 (human) (Q9BRS2 whole entry, looked up): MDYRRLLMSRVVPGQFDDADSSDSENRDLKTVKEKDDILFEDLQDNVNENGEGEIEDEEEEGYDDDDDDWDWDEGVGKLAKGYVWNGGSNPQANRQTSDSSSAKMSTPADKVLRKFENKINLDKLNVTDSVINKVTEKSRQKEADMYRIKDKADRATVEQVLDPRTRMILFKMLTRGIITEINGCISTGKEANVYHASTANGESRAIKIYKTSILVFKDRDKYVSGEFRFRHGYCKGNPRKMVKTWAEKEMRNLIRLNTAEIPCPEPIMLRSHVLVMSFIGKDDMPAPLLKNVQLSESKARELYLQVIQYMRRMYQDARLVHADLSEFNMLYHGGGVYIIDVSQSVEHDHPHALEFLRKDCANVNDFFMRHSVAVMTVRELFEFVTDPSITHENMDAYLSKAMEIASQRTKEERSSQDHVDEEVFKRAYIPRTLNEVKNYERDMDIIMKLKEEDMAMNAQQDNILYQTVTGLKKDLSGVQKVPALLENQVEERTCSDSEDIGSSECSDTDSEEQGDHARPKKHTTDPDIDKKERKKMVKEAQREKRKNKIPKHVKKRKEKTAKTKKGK

MAPK15 (human) = MAPK15 (human) (UniProt Q8TD08); assay: KINOMEscan competition binding; conditions: compound 10.0 µM
TTK (human) = TTK (human) (UniProt P33981); assay: KINOMEscan competition binding; conditions: compound 10.0 µM
RPS6KA4 KD2 (human) = RPS6KA4 KD2 (human) (UniProt O75676); assay: KINOMEscan competition binding; conditions: compound 10.0 µM
STK17B (human) = STK17B (human) (UniProt O94768); assay: KINOMEscan competition binding; conditions: compound 10.0 µM
PIM3 (human) = PIM3 (human) (UniProt Q86V86); assay: KINOMEscan competition binding; conditions: compound 10.0 µM
TAOK1 (human) = TAOK1 (human) (UniProt Q7L7X3); assay: KINOMEscan competition binding; conditions: compound 10.0 µM
Chain of TAOK1 (human) (Q7L7X3 whole entry, looked up): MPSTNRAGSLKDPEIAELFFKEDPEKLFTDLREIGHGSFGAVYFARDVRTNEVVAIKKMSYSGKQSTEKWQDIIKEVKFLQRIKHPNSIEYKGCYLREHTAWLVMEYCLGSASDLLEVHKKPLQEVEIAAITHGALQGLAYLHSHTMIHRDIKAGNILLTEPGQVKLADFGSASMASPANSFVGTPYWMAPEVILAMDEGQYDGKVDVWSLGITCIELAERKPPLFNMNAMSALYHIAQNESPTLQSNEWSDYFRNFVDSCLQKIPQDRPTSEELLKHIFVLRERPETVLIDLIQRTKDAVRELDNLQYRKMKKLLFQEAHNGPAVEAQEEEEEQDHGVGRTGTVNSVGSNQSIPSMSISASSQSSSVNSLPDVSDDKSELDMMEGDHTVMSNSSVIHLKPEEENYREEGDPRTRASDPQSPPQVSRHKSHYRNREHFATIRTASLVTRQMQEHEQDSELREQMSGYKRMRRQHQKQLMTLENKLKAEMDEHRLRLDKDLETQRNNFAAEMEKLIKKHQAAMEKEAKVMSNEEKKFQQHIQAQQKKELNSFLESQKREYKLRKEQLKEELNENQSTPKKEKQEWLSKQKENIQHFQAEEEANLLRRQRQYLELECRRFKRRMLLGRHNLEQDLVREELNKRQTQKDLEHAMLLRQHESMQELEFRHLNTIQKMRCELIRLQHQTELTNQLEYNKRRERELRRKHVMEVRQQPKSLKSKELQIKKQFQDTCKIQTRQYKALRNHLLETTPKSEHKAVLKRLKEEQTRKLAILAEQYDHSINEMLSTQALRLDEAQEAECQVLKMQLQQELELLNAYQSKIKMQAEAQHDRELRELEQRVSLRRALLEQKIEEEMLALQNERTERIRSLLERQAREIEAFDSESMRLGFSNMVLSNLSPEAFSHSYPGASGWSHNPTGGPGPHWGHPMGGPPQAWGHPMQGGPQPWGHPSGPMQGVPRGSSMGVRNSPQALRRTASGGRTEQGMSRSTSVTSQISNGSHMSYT

PIM1 (human) [3] = target: PIM1 (human) (UniProt P11309); assay: KINOMEscan competition binding; conditions: compound 10.0 µM
DAPK2 (human) = DAPK2 (human) (UniProt Q9UIK4); assay: KINOMEscan competition binding; conditions: compound 10.0 µM
MKNK2 (human) = MKNK2 (human) (UniProt Q9HBH9); assay: KINOMEscan competition binding; conditions: compound 10.0 µM
Chain of MKNK2 (human) (Q9HBH9 whole entry, looked up): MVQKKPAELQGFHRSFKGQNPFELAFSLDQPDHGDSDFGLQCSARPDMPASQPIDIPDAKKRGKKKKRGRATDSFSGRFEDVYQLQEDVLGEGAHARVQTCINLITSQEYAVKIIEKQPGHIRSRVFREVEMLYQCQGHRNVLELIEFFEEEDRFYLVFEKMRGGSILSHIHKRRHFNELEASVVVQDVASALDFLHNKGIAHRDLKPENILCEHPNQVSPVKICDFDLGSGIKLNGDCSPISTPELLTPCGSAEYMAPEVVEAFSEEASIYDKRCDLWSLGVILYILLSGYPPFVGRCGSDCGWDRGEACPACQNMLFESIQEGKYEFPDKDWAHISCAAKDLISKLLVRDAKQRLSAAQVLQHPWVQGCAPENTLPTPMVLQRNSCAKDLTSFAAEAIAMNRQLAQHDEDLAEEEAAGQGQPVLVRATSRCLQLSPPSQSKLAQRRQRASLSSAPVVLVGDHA

CSNK2A2 (human) = CSNK2A2 (human) (UniProt P19784); assay: KINOMEscan competition binding; conditions: compound 10.0 µM
CDK7 (human) = CDK7 (human) (UniProt P50613); assay: KINOMEscan competition binding; conditions: compound 10.0 µM
PIM2 (human) [4] = target: PIM2 (human) (UniProt Q9P1W9); assay: KINOMEscan competition binding; conditions: compound 10.0 µM
TAOK3 (human) = TAOK3 (human) (UniProt Q9H2K8); assay: KINOMEscan competition binding; conditions: compound 10.0 µM
ACVR2A (human) = ACVR2A (human) (UniProt P27037); assay: KINOMEscan competition binding; conditions: compound 10.0 µM
DAPK3 (human) = DAPK3 (human) (UniProt O43293); assay: KINOMEscan competition binding; conditions: compound 10.0 µM
Chain of DAPK3 (human) (O43293 whole entry, looked up): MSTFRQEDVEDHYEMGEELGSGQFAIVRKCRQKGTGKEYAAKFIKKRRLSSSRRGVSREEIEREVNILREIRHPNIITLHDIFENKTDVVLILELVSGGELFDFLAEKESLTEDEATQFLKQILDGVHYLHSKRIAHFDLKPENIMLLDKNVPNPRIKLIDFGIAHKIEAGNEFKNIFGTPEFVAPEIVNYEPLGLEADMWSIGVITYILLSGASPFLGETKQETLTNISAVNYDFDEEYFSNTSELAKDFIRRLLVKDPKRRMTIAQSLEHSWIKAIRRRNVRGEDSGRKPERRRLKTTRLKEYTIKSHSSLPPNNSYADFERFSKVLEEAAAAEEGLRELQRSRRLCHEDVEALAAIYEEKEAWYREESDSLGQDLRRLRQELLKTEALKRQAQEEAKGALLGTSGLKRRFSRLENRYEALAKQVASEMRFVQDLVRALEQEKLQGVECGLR

STK17A (human) = STK17A (human) (UniProt Q9UEE5); assay: KINOMEscan competition binding; conditions: compound 10.0 µM
DAPK1 (human) = DAPK1 (human) (UniProt P53355); assay: KINOMEscan competition binding; conditions: compound 10.0 µM
GSK3A (human) = GSK3A (human) (UniProt P49840); assay: KINOMEscan competition binding; conditions: compound 10.0 µM
MYLK4 (human) = MYLK4 (human) (UniProt Q86YV6); assay: KINOMEscan competition binding; conditions: compound 10.0 µM
MAPK12 (human) = MAPK12 (human) (UniProt P53778); assay: KINOMEscan competition binding; conditions: compound 10.0 µM
GAK (human) = GAK (human) (UniProt O14976); assay: KINOMEscan competition binding; conditions: compound 10.0 µM
MYLK (human) = MYLK (human) (UniProt Q15746); assay: KINOMEscan competition binding; conditions: compound 10.0 µM
Chain of MYLK (human) (Q15746 whole entry, looked up): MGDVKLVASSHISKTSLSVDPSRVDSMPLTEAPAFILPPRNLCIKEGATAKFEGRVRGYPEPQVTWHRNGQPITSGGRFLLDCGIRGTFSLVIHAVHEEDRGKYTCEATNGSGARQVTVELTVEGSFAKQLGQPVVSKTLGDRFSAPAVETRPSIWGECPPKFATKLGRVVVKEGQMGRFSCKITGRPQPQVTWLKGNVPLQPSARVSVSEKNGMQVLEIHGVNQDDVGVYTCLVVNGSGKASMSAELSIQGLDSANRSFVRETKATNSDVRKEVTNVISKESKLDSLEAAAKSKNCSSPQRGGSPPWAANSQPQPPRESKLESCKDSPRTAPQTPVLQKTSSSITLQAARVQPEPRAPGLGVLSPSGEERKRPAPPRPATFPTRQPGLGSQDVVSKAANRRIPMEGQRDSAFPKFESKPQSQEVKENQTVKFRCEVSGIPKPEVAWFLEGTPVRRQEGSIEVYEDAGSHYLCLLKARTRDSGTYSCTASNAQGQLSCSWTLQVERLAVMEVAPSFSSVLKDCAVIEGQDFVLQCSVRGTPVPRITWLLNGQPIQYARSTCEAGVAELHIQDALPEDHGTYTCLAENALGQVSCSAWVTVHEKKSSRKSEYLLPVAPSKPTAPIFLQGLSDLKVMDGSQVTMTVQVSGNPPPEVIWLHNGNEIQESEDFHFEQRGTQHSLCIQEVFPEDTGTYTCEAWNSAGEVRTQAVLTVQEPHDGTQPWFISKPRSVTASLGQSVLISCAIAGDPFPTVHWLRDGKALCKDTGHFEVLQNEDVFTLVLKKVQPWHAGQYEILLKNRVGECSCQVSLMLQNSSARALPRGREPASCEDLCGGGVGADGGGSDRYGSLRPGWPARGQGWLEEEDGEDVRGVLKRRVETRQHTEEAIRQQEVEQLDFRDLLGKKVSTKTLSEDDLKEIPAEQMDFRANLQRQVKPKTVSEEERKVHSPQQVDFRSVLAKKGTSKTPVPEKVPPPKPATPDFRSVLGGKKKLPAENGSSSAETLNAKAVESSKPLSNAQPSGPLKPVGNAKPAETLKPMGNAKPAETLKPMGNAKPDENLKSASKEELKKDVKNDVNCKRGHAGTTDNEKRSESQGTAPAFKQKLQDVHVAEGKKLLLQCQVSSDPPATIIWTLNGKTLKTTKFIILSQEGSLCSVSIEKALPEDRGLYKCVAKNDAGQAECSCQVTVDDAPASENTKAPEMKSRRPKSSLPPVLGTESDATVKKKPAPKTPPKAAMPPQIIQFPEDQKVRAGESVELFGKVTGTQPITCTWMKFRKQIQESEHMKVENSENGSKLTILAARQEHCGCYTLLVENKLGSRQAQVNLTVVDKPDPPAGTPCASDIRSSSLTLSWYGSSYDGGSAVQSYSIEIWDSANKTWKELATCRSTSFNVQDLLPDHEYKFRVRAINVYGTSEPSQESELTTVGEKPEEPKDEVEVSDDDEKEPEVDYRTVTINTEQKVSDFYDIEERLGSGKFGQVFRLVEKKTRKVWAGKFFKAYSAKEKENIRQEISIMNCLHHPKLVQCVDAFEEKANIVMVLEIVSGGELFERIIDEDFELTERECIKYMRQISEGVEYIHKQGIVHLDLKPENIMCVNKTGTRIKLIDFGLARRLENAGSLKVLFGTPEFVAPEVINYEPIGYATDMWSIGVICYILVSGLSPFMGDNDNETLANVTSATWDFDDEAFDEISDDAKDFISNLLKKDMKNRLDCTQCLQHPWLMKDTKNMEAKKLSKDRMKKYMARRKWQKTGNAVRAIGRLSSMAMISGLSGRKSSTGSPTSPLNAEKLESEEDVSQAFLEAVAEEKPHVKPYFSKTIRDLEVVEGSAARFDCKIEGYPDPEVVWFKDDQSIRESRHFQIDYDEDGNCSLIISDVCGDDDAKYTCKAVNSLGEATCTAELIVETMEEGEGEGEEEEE

AAK1 (human) = AAK1 (human) (UniProt Q2M2I8); assay: KINOMEscan competition binding; conditions: compound 10.0 µM
MAP2K3 (human) = MAP2K3 (human) (UniProt P46734); assay: KINOMEscan competition binding; conditions: compound 10.0 µM
PIK3CG (human) = PIK3CG (human) (UniProt P48736); assay: KINOMEscan competition binding; conditions: compound 10.0 µM
CDK16 (human) = CDK16 (human) (UniProt Q00536); assay: KINOMEscan competition binding; conditions: compound 10.0 µM
PLK4 (human) = PLK4 (human) (UniProt O00444); assay: KINOMEscan competition binding; conditions: compound 10.0 µM
MINK1 (human) = MINK1 (human) (UniProt Q8N4C8); assay: KINOMEscan competition binding; conditions: compound 10.0 µM
[5] = target: TYK2 JH2 pseudokinase (human) (UniProt P29597); assay: KINOMEscan competition binding; conditions: compound 10.0 µM
ACVR2B (human) = ACVR2B (human) (UniProt Q13705); assay: KINOMEscan competition binding; conditions: compound 10.0 µM
DYRK1B (human) = DYRK1B (human) (UniProt Q9Y463); assay: KINOMEscan competition binding; conditions: compound 10.0 µM
TGFBR2 (human) = TGFBR2 (human) (UniProt P37173); assay: KINOMEscan competition binding; conditions: compound 10.0 µM

Chain of PIM1 (human) (P11309 whole entry, looked up): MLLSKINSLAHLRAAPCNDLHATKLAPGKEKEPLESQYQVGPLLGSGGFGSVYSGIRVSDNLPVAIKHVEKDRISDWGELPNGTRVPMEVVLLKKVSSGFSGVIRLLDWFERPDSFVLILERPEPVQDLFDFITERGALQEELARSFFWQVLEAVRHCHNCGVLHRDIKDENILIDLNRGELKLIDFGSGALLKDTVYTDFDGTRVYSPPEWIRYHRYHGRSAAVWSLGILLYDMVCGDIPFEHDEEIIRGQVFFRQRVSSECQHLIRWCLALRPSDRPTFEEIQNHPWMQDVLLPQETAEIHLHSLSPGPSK
Chain of PIM2 (human) (Q9P1W9 whole entry, looked up): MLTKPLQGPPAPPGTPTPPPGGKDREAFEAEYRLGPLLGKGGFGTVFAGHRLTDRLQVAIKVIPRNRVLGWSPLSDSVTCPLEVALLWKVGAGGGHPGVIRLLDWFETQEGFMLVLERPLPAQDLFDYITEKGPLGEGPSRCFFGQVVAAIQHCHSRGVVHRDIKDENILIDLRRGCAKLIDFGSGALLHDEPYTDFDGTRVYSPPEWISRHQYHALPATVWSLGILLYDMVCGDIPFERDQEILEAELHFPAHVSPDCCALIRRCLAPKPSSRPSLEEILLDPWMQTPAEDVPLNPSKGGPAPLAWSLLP

## CS(=O)(=O)Nc1ccc(-c2ccc(/C=C3\SC(=N)NC3=O)o2)cc1
PIM1 (human) [1]
  IC50: 204 nM
PIM2 (human) [2]
  IC50: 274 nM
HIPK1 (human)
  kinase still bound, per cent of control: 0%
RIOK1 (human)
  kinase still bound, per cent of control: 21%
MAPK15 (human)
  kinase still bound, per cent of control: 0.65%
TTK (human)
  kinase still bound, per cent of control: 23%
RPS6KA4 KD2 (human)
  kinase still bound, per cent of control: 13%
STK17B (human)
  kinase still bound, per cent of control: 2.8%
PIM3 (human)
  kinase still bound, per cent of control: 5%
TAOK1 (human)
  kinase still bound, per cent of control: 3%
PIM1 (human) [3]
  kinase still bound, per cent of control: 2.9%
DAPK2 (human)
  kinase still bound, per cent of control: 9%
MKNK2 (human)
  kinase still bound, per cent of control: 33%
CSNK2A2 (human)
  kinase still bound, per cent of control: 28%
CDK7 (human)
  kinase still bound, per cent of control: 1.3%
PIM2 (human) [4]
  kinase still bound, per cent of control: 0.9%
TAOK3 (human)
  kinase still bound, per cent of control: 16%
ACVR2A (human)
  kinase still bound, per cent of control: 7.5%
DAPK3 (human)
  kinase still bound, per cent of control: 17%
STK17A (human)
  kinase still bound, per cent of control: 0.65%
DAPK1 (human)
  kinase still bound, per cent of control: 8.7%
GSK3A (human)
  kinase still bound, per cent of control: 10%
MYLK4 (human)
  kinase still bound, per cent of control: 8.2%
MAPK12 (human)
  kinase still bound, per cent of control: 12%
GAK (human)
  kinase still bound, per cent of control: 22%
MYLK (human)
  kinase still bound, per cent of control: 12%
AAK1 (human)
  kinase still bound, per cent of control: 34%
MAP2K3 (human)
  kinase still bound, per cent of control: 7.8%
PIK3CG (human)
  kinase still bound, per cent of control: 25%
CDK16 (human)
  kinase still bound, per cent of control: 0.3%
PLK4 (human)
  kinase still bound, per cent of control: 0.3%
MINK1 (human)
  kinase still bound, per cent of control: 30%
[5]
  kinase still bound, per cent of control: 21%
ACVR2B (human)
  kinase still bound, per cent of control: 14%
DYRK1B (human)
  kinase still bound, per cent of control: 24%
TGFBR2 (human)
  kinase still bound, per cent of control: 2.8%
